# Experimental data: patent US5804576A, “Derivatives of 5-androsten-17-ones and 5-androstan-17-ones” (Research Corporation Technologies, Inc., priority 1986, dated 1998)
# “Also recorded” adds a separate entry of the source.
# How the values were obtained:
# [1] = tested on: TPA (Tumor Promoter) Stimulation of Mouse Epidermal DNA; assay: Inhibition of TPA stimulation of mouse epidermal DNA synthesis (3H-thymidine incorporation), oral; format: in vivo, mouse (ICR male)
# How it was run: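 Shaved male ICR mice (7-9 weeks) got steroid orally in sesame oil (0.5 ml/mouse), then topical TPA (10 μg in acetone) 1 h later. After 20 h, i.p. 60 μCi ³H-thymidine 20 min before sacrifice; epidermal DNA labelling expressed as cpm per μg DNA (diphenylamine assay).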
# [2] = tested on: TPA stimulation of 3H-thymidine incorporation in epidermis; assay: Inhibition of TPA stimulation of 3H-thymidine incorporation in epidermis, topical steroid; format: in vivo, mouse (A/J)
# Method: Tumor promoters, such as TPA, stimulate hyperplasia and DNA synthesis when applied to the skin, and it is believed that this stimulation is an important step in the enhancement of tumorigenesis.
# Incorporation of ^3 H-thymidine into A/J mouse epidermal DNA was determined as described in Pashko, L. L., Schwartz, A. G., Abou-Gharbia, M. and Swern, D. (1981), Inhibition of DNA synthesis in mouse epidermis and breast epithelium by dehydroepiandrosterone and related steroids, Carcinogenesis, 2, 717-721. Values are mean±SD for 3 separately treated mice in each group 20 hours after TPA application. DHEA or testosterone was added topically in 0.2 ml acetone one hour before TPA addition.
# rat uterus [3] = assay: Uterotrophic test, subcutaneous (Compound 2 vs. DHEA); format: in vivo; conditions: n = 4 or 5
# Method: Twenty-two day old rats were obtained from Charles River Laboratories. Animals were used at 29 days of age. Test steroids were suspended by homogenization in sesame oil. Rats were orally intubated at 1-2 P.M. for 3 days with a test steroid in sesame oil or with sesame oil alone (control). On the 4th day the animals were killed and the uteri were removed and weighed.
# Compound 2 vs. DHEA. Compounds Administered by Subcutaneous Injection
# Steroids were dissolved in 2 ml ethanol and brought up to 5 ml volume with propylene glycol. Concentrations were such that 1 μl/gm body weight delivered the indicated dose.
# [4] = tested on: [3H]DMBA binding to skin DNA; assay: [3H]DMBA binding to skin DNA, oral steroid; format: in vivo, mouse (male A/J); conditions: four weeks treatment with 400 mg/kg
# C57BL/KsJ-db/db mice = conditions: 0.4% of the diet; cited from earlier work
# [5] = tested on: seminal vesicles plus prostate glands; assay: Androgenic and anti-androgenic activity (seminal vesicle plus prostate weight); format: in vivo, mouse (male A/J); conditions: con't. experiment; five weeks; DHEA 0.54%; n = 5
# [6] = tested on: mammalian glucose-6-phosphate dehydrogenase (G6PDH); conditions: cited from earlier work
# [7] = tested on: many different cell lines in culture; conditions: 10^-5 M to 10^-4 M; cited from earlier work
# HeLa cell strain, TCRC-2 = conditions: HeLa TCRC-2; cited from earlier work
# [8] = tested on: breast, lung, and colon tumors; conditions: approximately 400 mg/kg daily, long-term; cited from earlier work
# VY-A^vy /a mice = conditions: long-term administration; cited from earlier work
# [9] = tested on: 3H-thymidine incorporation in mouse epidermis; conditions: in vivo; cited from earlier work
# [10] = tested on: cultured rat kidney epithelial cell line; conditions: cited from earlier work
# cholesterol = conditions: mouse, in vivo; cited from earlier work
# [11] = tested on: Epstein-Barr virus-induced transformation of human lymphocytes; conditions: cited from earlier work
# [12] = tested on: New Zealand Black (NZB) mice; conditions: long-term treatment; cited from earlier work
# rat uterus [13] = conditions: 60 mg/kg s.c. for 3 days, sexually immature rats; cited from earlier work
# [14] = tested on: rat uterus; mouse seminal vesicle plus prostate; conditions: prolonged administration; cited from earlier work
smiles,measurement,setting,value
"C[C@H]1CC[C@@]2(C)C(=CC[C@@H]3[C@@H]2CC[C@]2(C)C(=O)CC[C@@H]32)C1 [Compound 16, 3β-methyl-5-androsten-17-one]",activity relative to DHEA (TPA stimulation of epidermal DNA synthesis),"[1]; oral dose-response, as active as DHEA",about 3 X
"C[C@]12CC[C@H](O)CC1=CC[C@@H]1[C@@H]2CC[C@]2(C)C(=O)CC[C@@H]12 [DHEA, 3β-Hydroxy-5-androst-en-17-one, reference compound]",blocking the TPA stimulation in DNA synthesis rate (in words),[1]; 200 mg/kg or 100 mg/kg oral,not at 200 mg/kg or 100 mg/kg
same,blocking the TPA stimulation in DNA synthesis rate (in words),[1]; 400 mg/kg oral,active at blocking the TPA stimulation in DNA synthesis rate at 400 mg/kg
same,TPA stimulation in 3H-thymidine incorporation (in words),"[1]; oral, single administration",does not inhibit the TPA stimulation in epidermal ^3 H-thymidine incorporation to a degree comparable; also recorded: inactive
same,TPA stimulation of epidermal DNA synthesis (in words),[2],abolishes this stimulation
same,Mean Uterine Weight,rat uterus [3]; 10 mg/kg s.c.,152 ± 17 Mgs
same,Mean Uterine Weight,rat uterus [3]; 60 mg/kg s.c.,290 ± 72 Mgs
same,3H-DMBA binding to skin DNA (in words),[4],does inhibit ^3 H-DMBA binding to skin DNA
same,hypoglycemic effect (in words),C57BL/KsJ-db/db mice,marked hypoglycemic effect
same,lifespan (in words),C57BL/KsJ-db/db mice,significantly prolonged their lifespan
same,Mean Seminal Vesicle plus Prostate Weight ± S.D.,[5],5.02 ± 0.41 mg/100 gm body weight
same,inhibition of mammalian G6PDH (in words),[6],potent non-competitive inhibitor of mammalian glucose-6-phosphate dehydrogenase
same,growth of cell lines in culture (in words),[7],slows the growth of many different cell lines in culture
same,sensitivity to growth inhibition (in words),"HeLa cell strain, TCRC-2",particularly sensitive to DHEA-induced growth inhibition
same,tumor development (in words),[8],"inhibit the development of breast, lung, and colon tumors"
same,development of obesity (in words),VY-A^vy /a mice,prevented the development of obesity without suppressing appetite
same,3H-thymidine incorporation in mouse epidermis (in words),[9],antagonizes the capacity of the tumor promoter
same,TPA stimulation of 3H-thymidine incorporation (in words),[10],antagonizes the capacity of the tumor promoter
same,anti-hypercholesterolemic effect (in words),cholesterol,anti-hypercholesterolemic effect
same,inhibition of Epstein-Barr virus-induced transformation (in words),[11],inhibitors of Epstein-Barr virus-induced transformation of human lymphocytes
same,rate of development of the autoimmune anemia (in words),[12],significantly inhibits the rate of development of the autoimmune anemia
same,uterine enlargement (in words),rat uterus [13],produces uterine enlargement
same,estrogenic effect (in words),[14],evidence of an estrogenic effect after prolonged administration
